Test results reported in patent US20030032183A1, “Stem cell differentiation” (priority 2001, published 2003).

Tests used:
embryoid bodies = test: Immunoperoxidase cytochemistry for insulin in suspended embryoid bodies; format: cell-based; details: retinoic acid days 3 to 7; suspension culture; day 32; versus control lacking primary antibody; FIG. 4
Procedure: Embryonic stem cell lines were cultured as described above for Examples 1-10 on gelatin coated Tissue Culture (TC) dishes without Mouse Embryonic Fibroblasts (MEF's) (with 1500 units/ml Lymphocyte Inhibitory Factor (LIF) in media) to remove MEF's from culture. The resulting stem cells were then differentiated as described above (with retinoic acid during treatment during days 3 to 7) except that the formed embryoid bodies were maintained in suspension for the duration of the experiment as opposed to being separated and adhered to TC dishes. All culturing from day 1 forward was performed in 25 millimolar (mM) glucose (high glucose) until after day 19, when it was changed to 5.5 millimolar glucose (physiological glucose).

embryonic stem cells = test: RT-PCR analysis of insulin (INS) and amylase (AML) transcripts in embryonic stem cells differentiated with retinoic acid; format: cell-based; design: key to Abundance of Insulin RT-PCR Product (INS) / Abundance of Amylase RT-PCR Product (AML): +: Indicates relative abundance; −: No RT-PCR band observed
Procedure: Embryonic stem cell lines were cultured and spilt 1:8 every three days for 4 passages on gelatin coated Tissue Culture (TC) dishes without Mouse Embryonic Fibroblasts (MEF's) (with 1500 units/ml Lymphocyte Inhibitory Factor (LIF) in media) to remove MEF's from culture. The resulting stem cells were then differentiated as follows:
On day 1, the stem cells were treated with trypsin to break up some aggregation and then suspended in 1% Fetal Calf Serum (FCS) Media (without LIF). The stem cells were then allowed to self-aggregate into embryoid bodies in suspension culture in bacterial petri dishes. On day 3, the cells were given a fresh media change and then split among two bacterial petri dishes (sample and control). A solution containing 1 μM retinoic acid was intermixed with the sample and both the control (no retinoic acid) and the sample were allowed to sit at 37° C. Fresh media were supplied at day 5 (with fresh 1 μM retinoic acid for the treated sample). At day 7, fresh media was supplied for both, with no retinoic acid (retinoic acid only present from days 3 to 7).
Fresh media was supplied again on day 9. On […] the cells were again trypsinized and then placed into TC dishes with 10% FCS media (no LIF). Small aliquots were taken at various times (days 14, 17, 19, 22, and 25) from the cultures and were saved for later analysis by reverse transcriptase polymerase chain reaction (RT-PCR).
On day 14, the media was changed for the two groups of cells (10% FCS) in each population (control and sample). On day 17, the media was changed again.
On day 19, adherent cells were gently blown off by pipetting, then trypsinized and resuspended in 10% FCS in bacterial petri dish suspension cultures. On days 22 and 25, the remaining cells were collected and a portion retained for RT-PCR analysis.
All culturing from day 1 forward was performed in 25 millimolar (mM) glucose (high glucose) until after day 19, when it was changed to 5.5 millimolar glucose (lower glucose) The glucose concentrations ranged from 30 mM to 10 mM on the high end and 0.5 mM-5 mM on the low end.
Total RNA from each aliquot collected above was purified as instructed with a Qiagen RNeasy® Mini purification kit (obtained commercially from Qiagen Inc.). The presence of specific RNA transcripts (i.e. insulin) was determined by RT-PCR using gene specific oligonucleotide primers as instructed with a Qiagen® OneStep RT-PCR kit (obtained commercially from Qiagen Inc.). Total RNA was prepared from cultures of differentiating ES cells. RT-PCR analyses were performed with appropriate oligonucleotide primers (INS-insulin) or the pancreatic specific product amylase (AML).

[1] = Ex. 10, lane 5, 1 μM retinoic acid days 3 to 7, day 25, glucose 5.5 mM

SMILES: CC1=C(/C=C/C(C)=C/C=C/C(C)=C/C(=O)O)C(C)(C)CCC1 [retinoic acid]
- Insulin protein in embryoid bodies by specific antibody staining (embryoid bodies): produce insulin
- Abundance of Insulin RT-PCR Product (INS) (embryonic stem cells; Ex. 9, lane 4, 1 μM retinoic acid days 3 to 7, day 22, glucose 5.5 mM): +
- Abundance of Amylase RT-PCR Product (AML) (embryonic stem cells; [1]): −
- Abundance of Insulin RT-PCR Product (INS) (embryonic stem cells; [1]): −
- Formation of insulin-producing cells (correctly sized insulin-specific RT-PCR band) (embryonic stem cells; stem cells treated with retinoic acid, aliquots at days 14, 17, 19 and 22, FIG. 1): insulin-producing cells resulted
